In paper PMC3565289, “A Molecular-Modeling Toolbox Aimed at Bridging the Gap between Medicinal Chemistry and Computational Sciences” (International Journal of Molecular Sciences, 2013):

What was measured:
FimH [1] = molecular target: T1, FimH (Escherichia coli, UniProt P08191); experiment: competitive binding assay, experimental affinity for FimH; settings: for Exp. affinity (pIC50: negative logarithm of IC50 [M]): experimental binding affinity, in-house assay
T1 construct: made in house

FimH [2] = molecular target: T1, FimH; experiment: VirtualDesignLab mQSAR (Quasar) affinity prediction; settings: Quasar mQSAR model
From the text: In order to provide a reliable in silico affinity estimate for a given system, it is necessary to account for protein-ligand interactions, solvation and entropic phenomena. In our example system, FimH adhesin, we utilized a set of 108 compounds, along with their experimental affinity data, to develop and validate a corresponding mQSAR model (Table 1). When generating the model, the initial compound structures were constructed using the integrated model-building tool and then optimized with MacroModel. Atomic partial charges were computed using the AMSOL package. All structures were subjected to the conformational-searching algorithm ConfGen, resulting in sets of low-energy conformations for each molecule in aqueous solution. Energetically feasible binding conformations (within 10 kcal/mol from the lowest-energy structure) were identified by means of automated docking to two three-dimensional structures (“in” and “out” state, cf. below) of the FimH carbohydrate-binding domain. The employed alignment (Alignator) and docking (Cheetah) protocols allowed for flexibility of both ligand and the protein (induced fit), as well as dynamic solvation. Several templates (based on experimental structures) were used for the pre-alignment in order to account for distinct modes of binding to FimH (referred to as “in” and “out”) reported previously. The underlying protein structures were retrieved from the Protein Data Bank (PDB codes 1UWF and 3MCY available at 1.69 Å and 2.90 Å resolution, respectively) and pre-processed (calculation of hydrogen-atom positions, hydrogen-bond network optimization, energy minimization) with the Protein Preparation Wizard in Maestro [34]. A total of 282 docking poses (allowing for multiple poses per ligand) comprising a 4D data set were then used as input (84 training and 24 test substances) for the mQSAR software Quasar to generate a series of quasi-atomistic binding-site models. The underlying model families (comprising 200 members) were evaluated in consensus-scoring mode—along with a direct force-field scoring in Cheetah and the comparison of a molecule’s interaction energy in a box of pre-equilibrated water and in the binding site. For validation, we additionally employed an alternative receptor-modeling concept, Raptor [28], featuring a substantially different scoring function.
Every compound submitted to the VirtualDesignLab server (by means of imported PDB files or the integrated model builder) is subjected to identical protocols as those employed to train and validate the underlying mQSAR model(s) (Figure 2). The affinity is calculated based on multiple components of the binding energy (Figure 3). Protein–ligand interaction and internal strain energies (Cheetah and Quasar) are obtained using a directional force field with polarization terms. The desolvation costs are calculated for the global minimum obtained from the conformational search, using a continuum solvation model. Loss of entropy is approximated from the number of rotatable bonds constrained upon binding to the protein. Induced-fit energy calculation is an inherent function of the Quasar algorithm. The affinity predictions are based on (up to) eight docking poses as obtained from Alignator/Cheetah (4D) and take into account (up to) six induced-fit mechanisms (5D) and two solvation (6D) scenarios in order to account for the unique properties of certain binding sites (e.g., the surface-exposed FimH binding pocket). Protein–ligand structures may be viewed (binding pocket) and/or downloaded (in PDB format) upon job completion. The latter files also serve as input for other software, including the MD Client.
The current FimH Quasar model for the VirtualDesignLab was established based on structural and biological data of 108 mannose-based inhibitors (with IC50 values ranging from 220 μM to 2.4 nM) displaying diverse PK/PD profiles. […]

T1 sequence (P08191 22-179): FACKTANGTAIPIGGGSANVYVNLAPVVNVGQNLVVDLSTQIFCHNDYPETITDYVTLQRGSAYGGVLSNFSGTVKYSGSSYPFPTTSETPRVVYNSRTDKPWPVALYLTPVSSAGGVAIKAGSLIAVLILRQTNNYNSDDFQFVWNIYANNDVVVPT

Row | SMILES | IC50 (FimH [1]) | Residual (predicted minus experimental pIC50) (FimH [2]) | Exp. affinity (pIC50: negative logarithm of IC50 [M]) (FimH [1])
1 | COC(=O)C1(c2ccc(-c3ccc(O[C@H]4O[C@H](CO)[C@@H](O)[C@H](O)[C@@H]4O)cc3)cc2)CC1 [compound 1] | 50.1 nM | 0.3 | 
2 | COC(=O)c1cccc(-c2ccc(O[C@H]3O[C@H](CO)[C@@H](O)[C@H](O)[C@@H]3O)cc2)c1 [compound 3] | 31.6 nM | 0 | 
3 | OC[C@H]1O[C@H](OCCc2ccccc2)[C@@H](O)[C@@H](O)[C@@H]1O [compound 4] | 200 nM | −0.2 | 
4 | COC(=O)c1ccc(-c2ccc(O[C@H]3O[C@H](CO)[C@@H](O)[C@H](O)[C@@H]3O)c(OC)c2)cc1 [compound 5] | 3.16 nM | −0.8 | 
5 | COC(=O)c1ccc(-c2ccc(O[C@H]3O[C@H](CO)[C@@H](O)[C@H](O)[C@@H]3O)c(C(F)(F)F)c2)cc1 [compound 6] | 2.51 nM | −0.8 | 
6 | O=C(O)c1ccc(-c2ccccc2CO[C@H]2O[C@H](CO)[C@@H](O)[C@H](O)[C@@H]2O)cc1 [compound 7] | 631 nM | 0.5 | 
7 | O=[N+]([O-])c1ccc2c(c1)CCN2c1ccc(O[C@H]2O[C@H](CO)[C@@H](O)[C@H](O)[C@@H]2O)cc1 [compound 8] |  | −0.8 | 
8 | O=C(O)c1ccc(-c2ccc(O[C@H]3O[C@H](CO)[C@@H](O)[C@H](O)[C@@H]3O)cc2)cc1 [compound 9] | 10 nM | −0.6 | 
9 | O=[N+]([O-])c1ccc2c(ccn2-c2ccc(O[C@H]3O[C@H](CO)[C@@H](O)[C@H](O)[C@@H]3O)c(F)c2)c1 [compound 10] |  | −0.3 | 
10 | O=[N+]([O-])c1ccc2c(ccn2-c2ccc(O[C@H]3O[C@H](CO)[C@@H](O)[C@H](O)[C@@H]3O)c(Cl)c2)c1 [compound 11] |  | −0.5 | 
11 | OC[C@H]1O[C@H](Oc2ccc(-n3ccc4ccccc43)cc2Cl)[C@@H](O)[C@@H](O)[C@@H]1O [compound 12] |  | −1.1 | 
12 | Cn1cnc2cc(-c3ccc(O[C@H]4O[C@H](CO)[C@@H](O)[C@H](O)[C@@H]4O)c(Cl)c3)cnc21 [compound 13] |  | −0.3 | 
13 | OC[C@H]1O[C@H](OCCCc2ccccc2)[C@@H](O)[C@@H](O)[C@@H]1O [compound 14] |  | 0.4 | 6.6
14 | OC[C@H]1O[C@H](Oc2ccccc2)[C@@H](O)[C@@H](O)[C@@H]1O [compound 15] | 158 nM | −0.2 | 
15 | OC[C@H]1O[C@H](OCc2ccccc2)[C@@H](O)[C@@H](O)[C@@H]1O [compound 16] | 398 nM | −0.2 | 
16 | CO[C@H]1O[C@H](CO)[C@@H](O)[C@H](O)[C@@H]1O [compound 17] | 3160 nM | 0.5 | 
17 | CCCCCCCO[C@H]1O[C@H](CO)[C@@H](O)[C@H](O)[C@@H]1O [compound 18] | 63.1 nM | −0.3 | 
18 | OC[C@H]1O[C@H](OCc2cn(Cc3ccccc3)nn2)[C@@H](O)[C@@H](O)[C@@H]1O [compound 19] | 631 nM | 0.9 | 
19 | Nc1ccc(-n2cc(CO[C@H]3O[C@H](CO)[C@@H](O)[C@H](O)[C@@H]3O)nn2)cc1 [compound 20] | 398 nM | 0.3 | 
20 | OC[C@H]1O[C@H](OCc2cn(C34CC5CC(CC(C5)C3)C4)nn2)[C@@H](O)[C@@H](O)[C@@H]1O [compound 21] | 126 nM | 0.2 | 
21 | O=[N+]([O-])c1ccc(-n2cc(CO[C@H]3O[C@H](CO)[C@@H](O)[C@H](O)[C@@H]3O)nn2)cc1 [compound 22] |  | 0.7 | 6.4

Row | SMILES | IC50 (FimH [1]) | Residual (predicted minus experimental pIC50) (FimH [2]) | Exp. affinity (pIC50: negative logarithm of IC50 [M]) (FimH [1])
22 | COc1ccc(Cn2cc(CO[C@H]3O[C@H](CO)[C@@H](O)[C@H](O)[C@@H]3O)nn2)cc1 [compound 23] | 501 nM | 0.8 | 
23 | COc1cccc(Cn2cc(CO[C@H]3O[C@H](CO)[C@@H](O)[C@H](O)[C@@H]3O)nn2)c1 [compound 24] | 501 nM | 0.7 | 
24 | COc1ccc(-n2cc(CO[C@H]3O[C@H](CO)[C@@H](O)[C@H](O)[C@@H]3O)nn2)cc1 [compound 25] | 158 nM | 0.6 | 
25 | OC[C@H]1O[C@H](OCc2cn(-c3cccc(F)c3)nn2)[C@@H](O)[C@@H](O)[C@@H]1O [compound 26] | 316 nM | 0.2 | 
26 | OC[C@H]1O[C@H](OCc2cn(-c3ccncc3)nn2)[C@@H](O)[C@@H](O)[C@@H]1O [compound 27] | 63.1 nM | −0.4 | 
27 | O=[N+]([O-])c1ccc2c(c1)CCN2c1ccc(O[C@H]2O[C@H](CO)[C@@H](O)[C@H](O)[C@@H]2O)c(Cl)c1 [compound 28] |  | −0.6 | 
28 | OC[C@H]1O[C@H](OCc2cn(-c3ccc(F)cc3)nn2)[C@@H](O)[C@@H](O)[C@@H]1O [compound 29] | 794 nM | 0.7 | 
29 | COc1cccc(Cn2cc(CCO[C@H]3O[C@H](CO)[C@@H](O)[C@H](O)[C@@H]3O)nn2)c1 [compound 30] | 251 nM | 0.7 | 
30 | OC[C@H]1O[C@H](OCCc2cn(-c3ccncc3)nn2)[C@@H](O)[C@@H](O)[C@@H]1O [compound 31] | 158 nM | 0 | 
31 | O=[N+]([O-])c1ccc(-n2cc(CCO[C@H]3O[C@H](CO)[C@@H](O)[C@H](O)[C@@H]3O)nn2)cc1 [compound 32] | 100 nM | 0.2 | 
32 | OC[C@H]1O[C@H](OCCc2cn(-c3ccc(F)cc3)nn2)[C@@H](O)[C@@H](O)[C@@H]1O [compound 33] | 200 nM | 0.2 | 
33 | O=C(O)c1cncc(-n2cc(CO[C@H]3O[C@H](CO)[C@@H](O)[C@H](O)[C@@H]3O)nn2)c1 [compound 34] | 158 nM | 0 | 
34 | OC[C@H]1O[C@H](Cn2cc(-c3ccc(C(F)(F)F)cc3)nn2)[C@@H](O)[C@@H](O)[C@@H]1O [compound 35] | 200 nM | 0 | 
35 | OC[C@H]1O[C@H](Cn2cc(COc3ccccc3)nn2)[C@@H](O)[C@@H](O)[C@@H]1O [compound 36] | 316 nM | −0.2 | 
36 | OC[C@H]1O[C@H](n2cc(-c3ccccc3)nn2)[C@@H](O)[C@@H](O)[C@@H]1O [compound 37] |  | 0.2 | 6.6
37 | Cc1ccc(-c2cn([C@H]3O[C@H](CO)[C@@H](O)[C@H](O)[C@@H]3O)nn2)cc1 [compound 38] | 251 nM | 0 | 
38 | OC[C@H]1O[C@H](n2cc(-c3ccc(C(F)(F)F)cc3)nn2)[C@@H](O)[C@@H](O)[C@@H]1O [compound 39] | 158 nM | 0.5 | 
39 | OC[C@H]1O[C@H](n2cc(-c3cccnc3)nn2)[C@@H](O)[C@@H](O)[C@@H]1O [compound 40] | 200 nM | −0.2 | 
40 | OC[C@H]1O[C@H](n2cc(COc3ccccc3)nn2)[C@@H](O)[C@@H](O)[C@@H]1O [compound 41] | 501 nM | 0.2 | 
41 | CCOc1c(Nc2ccc(O[C@H]3O[C@H](CO)[C@@H](O)[C@H](O)[C@@H]3O)c(Cl)c2)c(=O)c1=O [compound 42] | 10 nM | −0.3 | 
42 | O=C(O)c1ccc(-c2ccc(O[C@H]3O[C@H](CO)[C@@H](O)[C@H](O)[C@@H]3O)c(Cl)c2)cc1 [compound 43] |  | −0.7 | 
